# Laboratory results: the supplement of paper PMC10307832
# Key:
# Assay in all cases: relative viability (nuclei count vs DMSO), 5 days (fraction); higher = more cells survive
# [1] = tested on: COR-L 105
# How it was run: (§1)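 Lung cancer cell lines in 1536-well plates were dosed by pin tool the day after seeding, either with one drug alone or with a fixed anchor-drug dose plus five library-drug doses (not always all listed) in √10 steps. After 5 days, cells were fixed and their nuclei stained in one step (final 0.05% Triton X-100, 1% formaldehyde, 1 ug/ml Hoechst), then counted on 4× images. Relative viability is the nuclei count in treated wells divided by that in vehicle wells. Values are medians of duplicate plates.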
# [2] = tested on: COR-L23
# How it was run: as §1
# [3] = tested on: EKVX
# How it was run: as §1
# [4] = tested on: HARA
# How it was run: as §1
# [5] = tested on: HOP-62
# How it was run: as §1
# [6] = tested on: NCI-H1355
# How it was run: as §1
# [7] = tested on: NCI-H1395
# How it was run: as §1
# [8] = tested on: NCI-H1734
# How it was run: as §1
# [9] = tested on: NCI-H1755
# How it was run: as §1
# [10] = tested on: NCI-H1793
# How it was run: as §1
# [11] = tested on: NCI-H1993
# How it was run: as §1
# [12] = tested on: NCI-H2009
# How it was run: as §1
# [13] = tested on: NCI-H2228
# How it was run: as §1
# [14] = tested on: NCI-H2347
# How it was run: as §1
# [15] = tested on: NCI-H322M
# How it was run: as §1
# [16] = tested on: NCI-H358
# How it was run: as §1
# [17] = tested on: NCI-H647
# How it was run: as §1
# [18] = tested on: NCI-H838
# How it was run: as §1
# [19] = tested on: PC-14
# How it was run: as §1
# [20] = tested on: SK-MES-1
# How it was run: as §1
# [21] = tested on: UMC-11
# How it was run: as §1
structure (smiles),measurement,setting,value
COc1cc(N2CCC(C(N)=O)CC2)ccc1Nc1nc(N)c(Cl)c(Nc2ccccc2S(=O)(=O)C(C)C)n1 [HG-5-88-01] + C[C@]1(O)C[C@@H](c2nc(-c3ccc4ccc(-c5ccccc5)nc4c3)c3c(N)nccn32)C1 [Linsitinib] (partner 1 µM),relative viability,[1]; first compound 0.04 µM,0.921
same,relative viability,[1]; first compound 0.1265 µM,0.966
same,relative viability,[1]; first compound 0.4 µM,1.04
same,relative viability,[1]; first compound 1.265 µM,0.961
same,relative viability,[1]; first compound 4 µM,0.751
same,relative viability,[2]; first compound 0.04 µM,0.885
same,relative viability,[2]; first compound 0.1265 µM,0.888
same,relative viability,[2]; first compound 0.4 µM,0.872
same,relative viability,[2]; first compound 1.265 µM,0.738
same,relative viability,[2]; first compound 4 µM,0.757
same,relative viability,[3]; first compound 0.04 µM,0.972
same,relative viability,[3]; first compound 0.1265 µM,1.11
same,relative viability,[3]; first compound 0.4 µM,0.889
same,relative viability,[3]; first compound 4 µM,1.03
same,relative viability,[4]; first compound 0.04 µM,0.946
same,relative viability,[4]; first compound 0.1265 µM,0.916
same,relative viability,[4]; first compound 0.4 µM,0.909
same,relative viability,[4]; first compound 1.265 µM,1
same,relative viability,[4]; first compound 4 µM,0.92
same,relative viability,[5]; first compound 0.04 µM,0.978
same,relative viability,[5]; first compound 0.1265 µM,1.04
same,relative viability,[5]; first compound 0.4 µM,0.821
same,relative viability,[5]; first compound 1.265 µM,0.938
same,relative viability,[5]; first compound 4 µM,1.23
same,relative viability,[6]; first compound 0.04 µM,0.863
same,relative viability,[6]; first compound 0.1265 µM,0.85
same,relative viability,[6]; first compound 0.4 µM,0.864
same,relative viability,[6]; first compound 1.265 µM,0.705
same,relative viability,[6]; first compound 4 µM,0.767
same,relative viability,[7]; first compound 0.04 µM,1.13
same,relative viability,[7]; first compound 0.1265 µM,1.02
same,relative viability,[7]; first compound 0.4 µM,1.07
same,relative viability,[7]; first compound 1.265 µM,0.856
same,relative viability,[7]; first compound 4 µM,1.09
same,relative viability,[8]; first compound 0.04 µM,0.811
same,relative viability,[8]; first compound 0.1265 µM,0.851
same,relative viability,[8]; first compound 0.4 µM,0.964
same,relative viability,[8]; first compound 1.265 µM,0.885
same,relative viability,[8]; first compound 4 µM,1.02
same,relative viability,[9]; first compound 0.1265 µM,0.902
same,relative viability,[9]; first compound 0.4 µM,1.01
same,relative viability,[9]; first compound 1.265 µM,0.983
same,relative viability,[9]; first compound 4 µM,1.09
same,relative viability,[10]; first compound 0.1265 µM,1.05
same,relative viability,[10]; first compound 0.4 µM,0.856
same,relative viability,[10]; first compound 1.265 µM,0.809
same,relative viability,[10]; first compound 4 µM,1.18
same,relative viability,[11]; first compound 0.04 µM,0.807
same,relative viability,[11]; first compound 0.1265 µM,0.697
same,relative viability,[11]; first compound 0.4 µM,0.732
same,relative viability,[11]; first compound 1.265 µM,0.61
same,relative viability,[11]; first compound 4 µM,0.722
same,relative viability,[12]; first compound 0.04 µM,1.23
same,relative viability,[12]; first compound 0.1265 µM,1.14
same,relative viability,[12]; first compound 0.4 µM,1.23
same,relative viability,[12]; first compound 1.265 µM,1.12
same,relative viability,[12]; first compound 4 µM,1.17
same,relative viability,[13]; first compound 0.04 µM,0.234
same,relative viability,[13]; first compound 0.1265 µM,0.382
same,relative viability,[13]; first compound 0.4 µM,0.389
same,relative viability,[13]; first compound 1.265 µM,0.41
same,relative viability,[13]; first compound 4 µM,0.315
same,relative viability,[14]; first compound 0.04 µM,0.988
same,relative viability,[14]; first compound 0.1265 µM,0.933
same,relative viability,[14]; first compound 0.4 µM,1.1
same,relative viability,[14]; first compound 1.265 µM,0.959
same,relative viability,[14]; first compound 4 µM,1.03
same,relative viability,[15]; first compound 0.04 µM,0.892
same,relative viability,[15]; first compound 0.1265 µM,0.922
same,relative viability,[15]; first compound 0.4 µM,1.01
same,relative viability,[15]; first compound 1.265 µM,0.657
same,relative viability,[15]; first compound 4 µM,0.858
same,relative viability,[16]; first compound 0.04 µM,0.696
same,relative viability,[16]; first compound 0.1265 µM,0.707
same,relative viability,[16]; first compound 0.4 µM,0.625
same,relative viability,[16]; first compound 1.265 µM,0.484
same,relative viability,[16]; first compound 4 µM,0.387
same,relative viability,[17]; first compound 0.04 µM,1.21
same,relative viability,[17]; first compound 0.1265 µM,1.38
same,relative viability,[17]; first compound 1.265 µM,1.08
same,relative viability,[17]; first compound 4 µM,1.12
same,relative viability,[18]; first compound 0.04 µM,0.972
same,relative viability,[18]; first compound 0.1265 µM,1.07
same,relative viability,[18]; first compound 0.4 µM,0.885
same,relative viability,[18]; first compound 1.265 µM,0.915
same,relative viability,[18]; first compound 4 µM,0.956
same,relative viability,[19]; first compound 0.04 µM,0.977
same,relative viability,[19]; first compound 0.1265 µM,1.02
same,relative viability,[19]; first compound 0.4 µM,0.955
same,relative viability,[19]; first compound 1.265 µM,0.917
same,relative viability,[19]; first compound 4 µM,0.331
same,relative viability,[20]; first compound 0.04 µM,1.02
same,relative viability,[20]; first compound 0.1265 µM,1.03
same,relative viability,[20]; first compound 0.4 µM,1.08
same,relative viability,[20]; first compound 1.265 µM,1.04
same,relative viability,[20]; first compound 4 µM,1.14
same,relative viability,[21]; first compound 0.04 µM,1.03
same,relative viability,[21]; first compound 0.1265 µM,0.931
same,relative viability,[21]; first compound 0.4 µM,0.698
same,relative viability,[21]; first compound 1.265 µM,1.01
same,relative viability,[21]; first compound 4 µM,1.1
